In brackets after ≈: the same amount, converted by molar mass. Several values for one entry are separate records, joined by “and”; a condition that tells them apart may be missing. Equal values may be shown once. Read-outs that look alike come from different tables or passages of the source.
Assays:
[1] = Solubility test in media with different pH; format: physicochemical; conditions: for solubility: thermodynamic from solid, room temperature of 25° C.
Protocol: The hydrates obtained as above and the compound of formula A were tested for solubility in solutions with different pH. The test method was as follows.
1.1. Preparation of the Media with Different pH
pH1.0 medium: 9.0 mL of hydrochloric acid was diluted to 1000 mL with water and shaken well to obtain the medium.
pH4.5 medium: 6.80 g of potassium dihydrogen phosphate (KH2PO4) was dissolved in water and diluted to 1000 mL, adjusted to pH4.5 with phosphoric acid or sodium hydroxide, and shaken well to obtain the medium.
pH6.8 medium: 55.38 g of disodium hydrogen phosphate (Na2HPO4.12H2O) and 4.77 g of citric acid (C6H8O7.H2O) were dissolved in water and diluted to 1000 mL, adjusted to pH6.8 with phosphoric acid or sodium hydroxide, and shaken well to obtain the medium.
Pure water medium: purified water.
Test method: To a certain amount of test samples, the media with different pH were added gradually, respectively. The mixture was shaken continuously until it reached saturation. The weighing amount of the test sample and the amount of solvent were recorded and the concentration when the sample was dissolved was calculated.

[2] = Dissolution test of capsules (Chinese Pharmacopoeia 2015, General Method 0931, 2nd Method); format: physicochemical; conditions: for Dissolution rate, Mean (%), 5 min / Dissolution rate, Mean (%), 10 min / Dissolution rate, Mean (%), 15 min / Dissolution rate, Mean (%), 20 min / Dissolution rate, Mean (%), 30 min / Dissolution rate, Mean (%), 45 min: mean of 6 capsules; for Dissolution rate, Mean (%), 5 min / Dissolution rate, Mean (%), 10 min / Dissolution rate, Mean (%), 15 min / Dissolution rate, Mean (%), 20 min / Dissolution rate, Mean (%), 30 min / Dissolution rate, Mean (%), 45 min / Dissolution rate, 5 min / Dissolution rate, 10 min / Dissolution rate, 15 min / Dissolution rate, 20 min / Dissolution rate, 30 min / Dissolution rate, 45 min: purified water, 50 rpm; for Dissolution rate, 5 min / Dissolution rate, 10 min / Dissolution rate, 15 min / Dissolution rate, 20 min / Dissolution rate, 30 min / Dissolution rate, 45 min: single capsules 1-6, hydrate
Protocol: The hydrates obtained hereinabove and the compound of formula A were tested for dissolution rate. The test method was as follows.
Step 1: Pretreating Raw Materials
The samples were passed through a 100 mesh sieve.
Step 2: Blending Raw Materials with Auxiliary Materials
The raw materials and lactose were weighed according to the prescription, mixed in equal increment, sieved and mixed.
The capsules were filled via a capsule filling plate and sealed. The difference of the filling amount was controlled to ±5%. The appearance was inspected to ensure that the sealing was correct and there was no split or deformation.
Test method: dissolution test method (Chinese Pharmacopoeia, edited in 2015, Chapter 4, General Method 0931, the 2nd Method)
Dissolution medium: aqueous solution
Specific test method: The sample was tested following the dissolution test method (Chinese Pharmacopoeia, edited in 2015, Chapter 4, General Method 0931, the 2nd Method). 900 ml aqueous solution was used as the dissolution medium. The speed was 50 rpm. The test was performed in accordance with the method. […] After filtration, the filtrate was precisely measured and quantitatively diluted with the dissolution medium to prepare a solution containing about 10 μg of sample per 1 ml. The absorbance was measured by at 231 nm by UV-Vis spectrophotometry (Chinese Pharmacopoeia, edited in 2015, Chapter 4, General Method 0931, the 2nd Method). An appropriate amount of the control sample was taken, weighed accurately, dissolved in dissolution medium and diluted quantitatively to prepare a solution containing about 10 μg of the sample per 1 ml, and then measured in the same way. The amount of dissolution per capsule was calculated.

[3] = Stability test (influencing factors: light, high temperature, high humidity); format: physicochemical; conditions: for stability under high temperature and high humidity conditions (in words): 60° C., 92.5% RH
Protocol: Test process: An appropriate amount of each test sample was placed on a clean watch glass without a lid and then placed under the conditions of light 4500 lx±500 lx, high temperature of 60° C., high humidity of 92.5% RH for 5 days and 10 days, respectively. The properties and related substances were determined and the results were compared with the results at day 0 to observe the stability.
The test method for related substances was as follows.
Preparation of test sample solution: About 10 mg of each test sample was placed in a 10 ml volumetric flask, and 50% acetonitrile aqueous solution was added to dissolve sample, and diluted to the mark, shaken well, and filtered to obtain the test sample solution. A precise amount of 10 μl of the test sample solution was taken and injected according to the above chromatographic method, and the maximum single impurity and total impurity were calculated according to the area normalization method.

[4] = tested on: neutrophils; experiment: PGD2-induced neutrophils migration, Boyden chamber assay (Example 1); format: cell-based, mice; conditions: pretreatment CT-NA 1 and 10 μM (p<0.01) or OC459; PGD2 1 μM; 4 hrs
Protocol: The mice were intragastrically administered glycogen (1.5%) at the dose range of 20 ml/kg of body weight. 4 hrs later, the mice were euthanized to isolate neutrophils from the peritoneal lavage. The effect of CT-NA on neutrophils migration was detected by using the Boyden chamber assay kit (3 μm pore size). PGD2 was used as a chemoattractant because the activated PGD2/CRTH2 receptors promoted the migration of neutrophils. Initially, the isolated neutrophils (4×10^5) were diluted in 100 μL HBSS and allowed to migrate toward PGD2 (0.1, 1 and 10 μM) for 4 hrs to find out the suitable PGD2 concentration. Then, the isolated neutrophils (4×10^5) were pretreated with CT-NA (1 and 10 μM), and their migration to PGD2 (1 μM) was evaluated by counting the migrated neutrophils. Moreover, another potent CRTH2 inhibitor OC459 was used to countercheck the outcomes of CT-NA.

[5] = tested on: neutrophils; experiment: PGD2-induced neutrophils migration in vitro, Boyden chamber (Example 2); format: cell-based, mice; conditions: pretreatment CT-NA 1 μM or 10 μM, OC459 10 μM; 4 hrs; P<0.01
Protocol: The method for isolating neutrophils and testing effect of CT-NA on neutrophils migration was briefly described as follows. 1.5% glycogen was injected intragastrically into mice at a dose of 20 ml/kg body weight. 4 hrs later, the mice were euthanized to isolate neutrophils from the peritoneal lavage. Effect of CT-NA on the migration of neutrophils was detected using the Boyden chamber assay kit (3 um pore size, Billerica, Mass.). PGD2 was used as a chemoattractant because the activated PGD2/CRTH2 receptors promoted the neutrophils migration. Firstly, the isolated neutrophils were inoculated at 4×10^5 cells/ml into the upper side of well of the Boyden chamber, and the lower chamber contained different concentrations of PGD2 (0.1, 1 and 10 μM), and the neutrophils were allowed to migrate towards PGD2 for 4 hrs at 37° C. in order to find out the suitable PGD2 concentration. After evaluation of the suitable PGD2 concentration, the migration of neutrophils pretreated with CT-NA (1 and 10 μM) and OC459 (10 μM), another effective CRTH2 inhibitor, toward PGD2 (1 μM) was assessed for 4 hrs.

[6] = high temperature 60° C., Day 10
[7] = light condition 4500 lx±500 lx, Day 5
[8] = light condition 4500 lx±500 lx, Day 10

| SMILES | stability under high temperature and high humidity conditions (in words) ([3]; 5 and 10 days) | maximum single impurity % ([3]; Day 0) [%] | property ([3]; Day 0) | total impurity % ([3]; Day 0) [%] | maximum single impurity % ([3]; high humidity 92.5% RH, Day 5) [%] | property ([3]; high humidity 92.5% RH, Day 5) | total impurity % ([3]; high humidity 92.5% RH, Day 5) [%] | maximum single impurity % ([3]; high humidity 92.5% RH, Day 10) [%] | property ([3]; high humidity 92.5% RH, Day 10) | total impurity % ([3]; high humidity 92.5% RH, Day 10) [%] | maximum single impurity % ([3]; high temperature 60° C., Day 5) [%] | property ([3]; high temperature 60° C., Day 5) | total impurity % ([3]; high temperature 60° C., Day 5) [%] | maximum single impurity % [3, 6] [%] | property [3, 6] | total impurity % [3, 6] [%] | maximum single impurity % [3, 7] [%] | property [3, 7] | total impurity % [3, 7] [%] | maximum single impurity % [3, 8] [%] | other results |
| --- | --- | --- | --- | --- | --- | --- | --- | --- | --- | --- | --- | --- | --- | --- | --- | --- | --- | --- | --- | --- | --- |
| CN([C@@H]1CCc2c(CC(=O)O)c3cccnc3n2C1)S(=O)(=O)c1ccc(F)cc1 (racemic) [Compound A] | relatively stable | 0.08 | white powder | 0.32 | 0.08 | white powder | 0.31 | 0.07 | white powder | 0.26 | 0.07 | white powder | 0.24 | 0.08 | white powder | 0.25 | 4.66 | light yellow powder | 5.28 | 15.02 | water solubility at different pH (comparison in words) ([1]; pH 1.0, 4.5, 6.8 and purified water): poor water solubility; solubility ([1]; pH 1.0 medium (dilute hydrochloric acid), pH 1, simulated gastric fluid, pH1.0 medium, read-out: Solubility, pH = 1.0): 1.25 µg/mL (≈ 2.99 µM); solubility ([1]; pH 4.5 medium (potassium dihydrogen phosphate solution), pH 4.5, aqueous buffer, pH4.5 medium, read-out: Solubility, pH = 4.5): 1.67 µg/mL (≈ 4 µM); solubility ([1]; pH 6.8, aqueous buffer, pH6.8 medium, read-out: Solubility, pH = 6.8): 2 µg/mL (≈ 4.79 µM); solubility ([1]; purified water, read-out: Solubility, purified water): 2 µg/mL (≈ 4.79 µM); solubility in water (in words) ([1]; water): insoluble in water; dissolution rate (in words) ([2]; same method, aqueous dissolution medium): basically zero; stability under light condition (in words) ([3]; light 4500 lx±500 lx, 5 and 10 days): degrades significantly; property [3, 8]: light yellow powder; total impurity % [3, 8]: 15.25% |
| CN([C@@H]1CCc2c(CC(=O)[O-])c3cccnc3n2C1)S(=O)(=O)c1ccc(F)cc1.[Li+] [Lithium salt hydrate] | relatively stable | 0.59 | white powder | 0.87 | 0.55 | white powder | 0.72 | 0.56 | white powder | 0.76 | 0.56 | white powder | 0.79 | 0.56 | white powder | 0.78 | 0.61 | light yellow powder | 0.93 | 0.78 | Dissolution rate, Mean (%), 5 min [2]: 34.6%; Dissolution rate, Mean (%), 10 min [2]: 67.4%; Dissolution rate, Mean (%), 15 min [2]: 79.8%; Dissolution rate, Mean (%), 20 min [2]: 85.3%; Dissolution rate, Mean (%), 30 min [2]: 85.2%; Dissolution rate, Mean (%), 45 min [2]: 85.7%; Dissolution rate, 5 min [2]: 36.5% and 42.6% and 34.7% and 34.4% and 35.6% and 23.9%; Dissolution rate, 10 min [2]: 78.7% and 75.4% and 74.4% and 60.4% and 74.8% and 40.4%; Dissolution rate, 15 min [2]: 83.6% and 82.7% and 83.4% and 81.4% and 81.3% and 66.1%; Dissolution rate, 20 min [2]: 84.3% and 87% and 85.9% and 84.9% and 85.5% and 84.4%; Dissolution rate, 30 min [2]: 85.9% and 85.2% and 85.8% and 84.6% and 84.4% and 85.3%; Dissolution rate, 45 min [2]: 85.5% and 85.6% and 88.3% and 84.2% and 85.3%; property [3, 8]: light yellow powder; total impurity % [3, 8]: 1.21% |
| Cc1c(Cc2ccc3ccccc3n2)c2cc(F)ccc2n1CC(=O)O [OC459, reference compound] | – | – | – | – | – | – | – | – | – | – | – | – | – | – | – | – | – | – | – | – | PGD2-induced neutrophils migration [4]: inhibited; neutrophils migration induced by 1 μM PGD2 [5]: significantly reduced |
| CN([C@@H]1CCc2c(CC(=O)[O-])c3cccnc3n2C1)S(=O)(=O)c1ccc(F)cc1.[K+] [Potassium salt hydrate] | relatively stable | 0.34 | white powder | 0.49 | 0.34 | Molten solid | 0.45 | 0.31 | colorless liquid | 0.48 | 0.34 | white powder | 0.45 | 0.33 | white powder | 0.45 | 0.33 | light yellow powder | 0.72 | 0.33 | Dissolution rate, Mean (%), 5 min [2]: 31.6%; Dissolution rate, Mean (%), 10 min [2]: 74.1%; Dissolution rate, Mean (%), 15 min [2]: 83.0%; Dissolution rate, Mean (%), 20 min [2]: 85.6%; Dissolution rate, Mean (%), 30 min [2]: 87.0%; Dissolution rate, Mean (%), 45 min [2]: 86.9%; Dissolution rate, 5 min [2]: 30.7% and 28.9% and 24.1% and 34.9% and 41.7% and 29.6%; Dissolution rate, 10 min [2]: 80.4% and 53.3% and 81.5% and 72.3% and 77.6% and 79.2%; Dissolution rate, 15 min [2]: 83.7% and 80.8% and 87.4% and 84.4% and 79.5% and 82.1%; Dissolution rate, 20 min [2]: 86.4% and 83.1% and 89.2% and 87.8% and 83.0% and 84.1%; Dissolution rate, 30 min [2]: 86.9% and 86.7% and 90.2% and 87.4% and 85.0% and 85.6%; Dissolution rate, 45 min [2]: 85.6% and 86.7% and 91.3% and 87.0% and 85.8% and 84.9%; property [3, 8]: light yellow powder; total impurity % [3, 8]: 0.88% |
